Results published in ChEMBL document CHEMBL3046568, “Synthesis, antimicrobial and DNA cleavage studies of some 4-aryloxymethylcoumarins obtained by reaction of 4-bromomethylcoumarins with bidentate nucleophiles” (2012).
≈ marks a conversion by molar mass, not a printed value. Calls of active or inactive are those of the source. No cut-off for these calls is given here.

Experiments:
[1] = system: Enterococcus faecalis; assay: Antibacterial activity against Enterococcus faecalis MTCC 3382 after 24 hr by disk diffusion method; format: functional; settings: for MIC: Enterococcus faecalis, MTCC 3382, 24 h
[2] = system: Aspergillus niger; assay: Induction of Aspergillus niger DNA cleavage at 50 ug after 2 hr by agarose gel electrophoresis
[3] = system: Escherichia coli; assay: Induction of Escherichia coli MTCC 1089 DNA cleavage at 50 ug after 2 hr by agarose gel electrophoresis
[4] = system: Staphylococcus aureus; assay: Induction of Staphylococcus aureus MTCC 3160 DNA cleavage at 50 ug after 2 hr by agarose gel electrophoresis
[5] = system: Fusarium oxysporum; assay: Antifungal activity against Fusarium oxysporum after 3 to 4 days by serial dilution method; format: functional; settings: for MIC: Fusarium oxysporum
[6] = system: Mucor fuscus; assay: Antifungal activity against Mucor fuscus after 3 to 4 days by serial dilution method; format: functional; settings: for MIC: Mucor fuscus
[7] = system: Penicillium chrysogenum; assay: Antifungal activity against Penicillium chrysogenum after 3 to 4 days by serial dilution method; format: functional; settings: for MIC: Penicillium chrysogenum
[8] = system: Aspergillus niger; assay: Antifungal activity against Aspergillus niger after 3 to 4 days by serial dilution method; format: functional; settings: for MIC: Aspergillus niger
[9] = system: Candida albicans; assay: Antifungal activity against Candida albicans after 3 to 4 days by serial dilution method; format: functional; settings: for MIC: Candida albicans
[10] = system: Aspergillus fumigatus; assay: Antifungal activity against Aspergillus fumigatus after 3 to 4 days by serial dilution method; format: functional; settings: for MIC: Aspergillus fumigatus
[11] = system: Escherichia coli; assay: Antibacterial activity against Escherichia coli MTCC 1089 after 24 hr by disk diffusion method; format: functional; settings: for MIC: Escherichia coli, MTCC 1089, 24 h
[12] = system: Klebsiella pneumoniae; assay: Antibacterial activity against Klebsiella pneumoniae MTCC 3384 after 24 hr by disk diffusion method; format: functional; settings: for MIC: Klebsiella pneumoniae, MTCC 3384, 24 h
[13] = system: Pseudomonas aeruginosa; assay: Antibacterial activity against Pseudomonas aeruginosa MTCC 1034 after 24 hr by disk diffusion method; format: functional; settings: for MIC: Pseudomonas aeruginosa, MTCC 1034, 24 h
[14] = system: Bacillus subtilis; assay: Antibacterial activity against Bacillus subtilis MTCC 297 after 24 hr by disk diffusion method; format: functional; settings: for MIC: Bacillus subtilis, MTCC 297, 24 h
[15] = system: Staphylococcus aureus; assay: Antibacterial activity against Staphylococcus aureus MTCC 3160 after 24 hr by disk diffusion method; format: functional; settings: for MIC: Staphylococcus aureus, MTCC 3160, 24 h

Row | Structure (SMILES) | inhibition zone (IZ) [1] | MIC [1] | MIC [5] | inhibition zone (IZ) [6] | MIC [6] | inhibition zone (IZ) [7] | MIC [7] | inhibition zone (IZ) [8] | MIC [8] | inhibition zone (IZ) [9] | MIC [9] | inhibition zone (IZ) [10] | MIC [10] | MIC [11] | inhibition zone (IZ) [12] | MIC [12] | inhibition zone (IZ) [13] | inhibition zone (IZ) [14] | MIC [14] | inhibition zone (IZ) [15] | other results
1 | Cc1ccc2c(COc3cccc(O)c3)cc(=O)oc2c1 | 16 mm | 12.5 µg/mL (≈ 44.3 µM) | 50 µg/mL (≈ 177 µM) | 14 mm | 25 µg/mL (≈ 88.6 µM) | 18 mm | 12.5 µg/mL (≈ 44.3 µM) | 19 mm | 6.25 µg/mL (≈ 22.1 µM) | 9 mm | 25 µg/mL (≈ 88.6 µM) | 16 mm | 12.5 µg/mL (≈ 44.3 µM) | 50 µg/mL (≈ 177 µM) | 13 mm | 12.5 µg/mL (≈ 44.3 µM) | 16 mm | 14 mm | 12.5 µg/mL (≈ 44.3 µM) | 14 mm | Activity [2]: inactive; Activity [3]: inactive; Activity [4]: inactive; inhibition zone (IZ) [5]: 9 mm; inhibition zone (IZ) [11]: 9 mm; MIC [13]: 12.5 µg/mL (≈ 44.3 µM); MIC [15]: 12.5 µg/mL (≈ 44.3 µM)
2 | Cc1ccc2c(COc3cccc(OCc4cc(=O)oc5cc(C)ccc45)c3)cc(=O)oc2c1 | 16 mm | 12.5 µg/mL (≈ 27.5 µM) | > 100 µg/mL | 15 mm | 25 µg/mL (≈ 55 µM) | 15 mm | 25 µg/mL (≈ 55 µM) | 16 mm | 12.5 µg/mL (≈ 27.5 µM) | 8 mm | 25 µg/mL (≈ 55 µM) | 17 mm | 12.5 µg/mL (≈ 27.5 µM) | > 100 µg/mL | 13 mm | 12.5 µg/mL (≈ 27.5 µM) | 14 mm | 14 mm | 12.5 µg/mL (≈ 27.5 µM) | 12 mm | Activity [2]: inactive; Activity [3]: inactive; Activity [4]: inactive; MIC [13]: 25 µg/mL (≈ 55 µM); MIC [15]: 25 µg/mL (≈ 55 µM)
3 | O=c1cc(COc2cccc(O)c2)c2c(ccc3ccccc32)o1 | 14 mm | 12.5 µg/mL (≈ 39.3 µM) | 25 µg/mL (≈ 78.5 µM) | 13 mm | 25 µg/mL (≈ 78.5 µM) | 16 mm | 25 µg/mL (≈ 78.5 µM) | 17 mm | 12.5 µg/mL (≈ 39.3 µM) | 14 mm | 12.5 µg/mL (≈ 39.3 µM) | 15 mm | 12.5 µg/mL (≈ 39.3 µM) | 25 µg/mL (≈ 78.5 µM) | 15 mm | 12.5 µg/mL (≈ 39.3 µM) | 18 mm | 12 mm | 25 µg/mL (≈ 78.5 µM) | 11 mm | Activity [2]: inactive; Activity [3]: inactive; Activity [4]: inactive; inhibition zone (IZ) [5]: 12 mm; inhibition zone (IZ) [11]: 12 mm; MIC [13]: 12.5 µg/mL (≈ 39.3 µM); MIC [15]: 25 µg/mL (≈ 78.5 µM)
4 | CCN(CC)c1cccc(OCc2cc(=O)oc3c2ccc2ccccc23)c1 | 14 mm | 12.5 µg/mL (≈ 33.5 µM) | 25 µg/mL (≈ 66.9 µM) | 13 mm | 25 µg/mL (≈ 66.9 µM) | 17 mm | 12.5 µg/mL (≈ 33.5 µM) | 17 mm | 12.5 µg/mL (≈ 33.5 µM) | 14 mm | 12.5 µg/mL (≈ 33.5 µM) | 15 mm | 12.5 µg/mL (≈ 33.5 µM) | 25 µg/mL (≈ 66.9 µM) | 16 mm | 12.5 µg/mL (≈ 33.5 µM) | 19 mm | 11 mm | 25 µg/mL (≈ 66.9 µM) | 14 mm | Activity [2]: inactive; Activity [3]: inactive; Activity [4]: inactive; inhibition zone (IZ) [5]: 13 mm; inhibition zone (IZ) [11]: 13 mm; MIC [13]: 6.25 µg/mL (≈ 16.7 µM); MIC [15]: 12.5 µg/mL (≈ 33.5 µM)
5 | O=C(O)c1cn(C2CC2)c2cc(N3CCNCC3)c(F)cc2c1=O [CIPROFLOXACIN] | 23 mm | 6.25 µg/mL (≈ 18.9 µM) |  |  |  |  |  |  |  |  |  |  |  | 12.5 µg/mL (≈ 37.7 µM) | 21 mm | 6.25 µg/mL (≈ 18.9 µM) | 25 mm | 20 mm | 6.25 µg/mL (≈ 18.9 µM) | 21 mm | inhibition zone (IZ) [11]: 18 mm
6 | OC(Cn1cncn1)(Cn1cncn1)c1ccc(F)cc1F [FLUCONAZOLE] |  |  | 12.5 µg/mL (≈ 40.8 µM) | 22 mm | 6.25 µg/mL (≈ 20.4 µM) | 23 mm | 6.25 µg/mL (≈ 20.4 µM) | 24 mm | 6.25 µg/mL (≈ 20.4 µM) | 20 mm | 6.25 µg/mL (≈ 20.4 µM) | 22 mm | 6.25 µg/mL (≈ 20.4 µM) |  |  |  |  |  |  |  | inhibition zone (IZ) [5]: 17 mm
